Values quoted from earlier work, collected in US10024846B2, “Methods for treating diet-induced obesity by decreasing or inhibiting P2Y2 purinergic receptor expression or activity” (The United States of America as represented by the …, priority 2012, dated 2018).

What was measured:
P2Y2 receptor = conditions: competitive P2Y2 receptor antagonists; values from cited literature
human P2Y4 receptor = human P2Y4 receptor (Homo sapiens, UniProt P51582); conditions: Herold et al. 2004
rat P2Y4 receptor = rat P2Y4 receptor (Rattus norvegicus, UniProt O35811); conditions: Herold et al. 2004
rat P2Y4 receptor, sequence (O35811 whole entry): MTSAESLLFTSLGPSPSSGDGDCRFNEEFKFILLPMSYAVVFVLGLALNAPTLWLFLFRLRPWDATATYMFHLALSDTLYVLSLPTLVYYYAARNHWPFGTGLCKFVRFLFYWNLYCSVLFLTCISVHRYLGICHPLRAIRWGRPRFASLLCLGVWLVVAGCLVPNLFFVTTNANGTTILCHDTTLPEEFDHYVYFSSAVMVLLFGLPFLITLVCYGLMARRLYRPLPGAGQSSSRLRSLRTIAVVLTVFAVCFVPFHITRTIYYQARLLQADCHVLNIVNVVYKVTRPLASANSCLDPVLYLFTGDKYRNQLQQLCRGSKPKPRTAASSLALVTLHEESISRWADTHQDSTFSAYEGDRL

human P2Y4 receptor, sequence (P51582 whole entry): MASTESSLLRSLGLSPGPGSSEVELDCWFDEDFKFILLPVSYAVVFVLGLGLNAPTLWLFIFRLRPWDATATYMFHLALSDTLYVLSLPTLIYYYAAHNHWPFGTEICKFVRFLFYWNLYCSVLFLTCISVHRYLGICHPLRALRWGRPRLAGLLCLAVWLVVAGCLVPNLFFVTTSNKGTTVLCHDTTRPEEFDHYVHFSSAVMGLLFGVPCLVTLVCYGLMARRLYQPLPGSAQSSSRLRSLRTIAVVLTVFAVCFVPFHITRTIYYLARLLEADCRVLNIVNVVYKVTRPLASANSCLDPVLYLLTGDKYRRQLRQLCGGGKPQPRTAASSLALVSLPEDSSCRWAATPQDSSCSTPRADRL

SMILES | IC50 (P2Y2 receptor) | agonist versus antagonist action at the P2Y4 receptor (human P2Y4 receptor) | agonist versus antagonist action at the P2Y4 receptor (rat P2Y4 receptor)
Cc1ccc2c(c1)C=Cc1cc(C)ccc1C2c1cn(Cc2ccc(C(=O)Nc3nnn[nH]3)o2)c(=O)[nH]c1=S [AR-C118925] | ~6 µM |  | 
Cn1cc(C2c3ccc(Cl)cc3C=Cc3scnc32)c(=S)[nH]c1=O (stereo not shown) [AR-C126313] | ~6 µM |  | 
Nc1ncnc2c1ncn2[C@@H]1O[C@H](COP(=O)(O)OP(=O)(O)OP(=O)(O)O)[C@@H](O)[C@H]1O [ATP] |  | potent competitive antagonist | potent full agonist
